Assay results reported in patent US20230278981A1, “DICHLOROPHENOL HSD17B13 INHIBITORS AND USES THEREOF” (INIPHARM, INC., priority 2020, published 2023).
pIC50: −log10 of the molar value. Structures can show the parent of a compound that is named as a salt.

Molecular target: HSD17B13 (Homo sapiens (Human), UniProt Q7Z5P4)
Assay: LC/MS estrone detection assay: conversion of estradiol to estrone by HSD17B13
Format: biochemical
Details: 4 μM estradiol, 6 mM NAD+, 30 nM HSD17B13 enzyme (E. coli expressed His-tagged), 2 hours at 26.5° C.
Summary of the method: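 His-tagged E. coli-expressed HSD17B13 (30 nM) with 4 μM estradiol and 6 mM NAD+ in 1 M potassium phosphate pH 7.4, 0.5% DMSO, 2 h at 26.5° C. Estrone and estradiol quantified by LC-MS/MS after MeCN quench with D4-estrone internal standard; activity as % of uninhibited enzyme, IC50 by four-parameter fit, duplicates.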

Chain of HSD17B13 (Q7Z5P4 20-300): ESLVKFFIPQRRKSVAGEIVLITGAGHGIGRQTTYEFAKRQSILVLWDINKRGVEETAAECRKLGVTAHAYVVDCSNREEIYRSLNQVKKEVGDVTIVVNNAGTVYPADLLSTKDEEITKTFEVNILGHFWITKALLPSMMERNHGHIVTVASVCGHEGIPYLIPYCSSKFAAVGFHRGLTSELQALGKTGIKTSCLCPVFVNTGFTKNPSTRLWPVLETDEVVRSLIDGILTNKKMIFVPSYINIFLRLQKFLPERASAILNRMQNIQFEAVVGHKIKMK

SMILES	pIC50
O=C(Nc1cccc2ncn(Cc3cccnc3OC(F)(F)F)c(=O)c12)c1cc(Cl)c(O)c(Cl)c1 [Example 87, 3,5-dichloro-4-hydroxy-N-(4-oxo-3-((2-(trifluoromethoxy)pyridin-3-yl)methyl)-3,4-dihydroquinazolin-5-yl)benzamide]	6.30 to 7.00
Cc1ccc(NC(=O)c2cc(Cl)c(O)c(Cl)c2)c2c(=O)n(Cc3ccccc3OC(F)(F)F)cnc12 [Example 88, 3,5-dichloro-4-hydroxy-N-(8-methyl-4-oxo-3-(2-(trifluoromethoxy)benzyl)-3,4-dihydroquinazolin-5-yl)benzamide]	≥ 7.00
Cc1ccc(NC(=O)c2cc(Cl)c(O)c(Cl)c2)c2c(=O)n(Cc3ccccc3OC(F)(F)F)c(C)nc12 [Example 89, 3,5-dichloro-N-(2,8-dimethyl-4-oxo-3-(2-(trifluoromethoxy)benzyl)-3,4-dihydroquinazolin-5-yl)-4-hydroxybenzamide]	≥ 7.00
O=C(Nc1ccc(Cl)c2ncn(Cc3ccccc3OC(F)(F)F)c(=O)c12)c1cc(Cl)c(O)c(Cl)n1 [Example 90, 4,6-dichloro-N-(8-chloro-4-oxo-3-(2-(trifluoromethoxy)benzyl)-3,4-dihydroquinazolin-5-yl)-5-hydroxypicolinamide]	6.30 to 7.00
Cc1ccc(NC(=O)c2cc(Cl)c(O)c(Cl)n2)c2c(=O)n(Cc3ccccc3OC(F)(F)F)cnc12 [Example 91, 4,6-dichloro-5-hydroxy-N-(8-methyl-4-oxo-3-(2-(trifluoromethoxy)benzyl)-3,4-dihydroquinazolin-5-yl)picolinamide]	6.30 to 7.00
O=C(Nc1ccnc2ncn(Cc3ccccc3OC(F)(F)F)c(=O)c12)c1cc(Cl)c(O)c(Cl)c1 [Example 92, 3,5-dichloro-4-hydroxy-N-(4-oxo-3-(2-(trifluoromethoxy)benzyl)-3,4-dihydropyrido[2,3-d]pyrimidin-5-yl)benzamide]	6.30 to 7.00
Cn1c(=O)n(Cc2ccccc2OC(F)(F)F)c(=O)c2c(NC(=O)c3cc(Cl)c(O)c(Cl)c3)cccc21 [Example 93, 3,5-dichloro-4-hydroxy-N-(1-methyl-2,4-dioxo-3-(2-(trifluoromethoxy)benzyl)-1,2,3,4-tetrahydroquinazolin-5-yl)benzamide]	≥ 7.00
Cc1ccc2ncn(Cc3ccccc3OC(F)(F)F)c(=O)c2c1NC(=O)c1cc(Cl)c(O)c(Cl)c1 [Example 94, 3,5-dichloro-4-hydroxy-N-(6-methyl-4-oxo-3-(2-(trifluoromethoxy)benzyl)-3,4-dihydroquinazolin-5-yl)benzamide]	6.30 to 7.00
O=C(Nc1ccnc2[nH]c(=O)n(Cc3ccccc3OC(F)(F)F)c(=O)c12)c1cc(Cl)c(O)c(Cl)c1 [Example 95, 3,5-dichloro-N-(2,4-dioxo-3-(2-(trifluoromethoxy)benzyl)-1,2,3,4-tetrahydropyrido[2,3-d]pyrimidin-5-yl)-4-hydroxybenzamide]	6.30 to 7.00
Cc1nc2nccc(NC(=O)c3cc(Cl)c(O)c(Cl)c3)c2c(=O)n1Cc1ccccc1OC(F)(F)F [Example 96, 3,5-dichloro-4-hydroxy-N-(2-methyl-4-oxo-3-(2-(trifluoromethoxy)benzyl)-3,4-dihydropyrido[2,3-d]pyrimidin-5-yl)benzamide]	≥ 7.00
O=C(Nc1csc2ncn(Cc3ccccc3)c(=O)c12)c1cc(Cl)c(O)c(Cl)c1 [Example 97, N-(3-benzyl-4-oxo-3,4-dihydrothieno[2,3-d]pyrimidin-5-yl)-3,5-dichloro-4-hydroxybenzamide]	6.30 to 7.00
O=C(Nc1csc2ncn(Cc3ccccc3)c(=O)c12)c1cc(Cl)c(O)c(Cl)n1 [Example 98, N-(3-benzyl-4-oxo-3,4-dihydrothieno[2,3-d]pyrimidin-5-yl)-4,6-dichloro-5-hydroxypicolinamide]	6.30 to 7.00
Cn1nc(NC(=O)c2cc(Cl)c(O)c(Cl)c2)c2c(=O)n(Cc3ccccc3)cnc21 [Example 99, N-(5-benzyl-1-methyl-4-oxo-4,5-dihydro-1H-pyrazolo[3,4-d]pyrimidin-3-yl)-3,5-dichloro-4-hydroxybenzamide]	5.00 to 6.00
O=C(Nc1cccc2ncn(Cc3cnn4ccccc34)c(=O)c12)c1cc(Cl)c(O)c(Cl)c1 [Example 100, 3,5-dichloro-4-hydroxy-N-(4-oxo-3-(pyrazolo[1,5-a]pyridin-3-ylmethyl)-3,4-dihydroquinazolin-5-yl)benzamide]	6.30 to 7.00
O=C(Nc1cccc2nc(C(F)(F)F)n(C3CC3c3ccccc3)c(=O)c12)c1cc(Cl)c(O)c(Cl)n1 (stereo not drawn) [Example 101, 4,6-dichloro-5-hydroxy-N-(4-oxo-3-(2-phenylcyclopropyl)-2-(trifluoromethyl)-3,4-dihydroquinazolin-5-yl)picolinamide]	5.00 to 6.00
O=C(Nc1csc2ncn(Cc3ccccc3OC(F)(F)F)c(=O)c12)c1cc(Cl)c(O)c(Cl)c1 [Example 103, 3,5-dichloro-4-hydroxy-N-(4-oxo-3-(2-(trifluoromethoxy)benzyl)-3,4-dihydrothieno[2,3-d]pyrimidin-5-yl)benzamide]	6.30 to 7.00
O=C(Nc1csc2ncn(Cc3ccccc3OC(F)(F)F)c(=O)c12)c1cc(Cl)c(O)c(Cl)n1 [Example 104, 4,6-dichloro-5-hydroxy-N-(4-oxo-3-(2-(trifluoromethoxy)benzyl)-3,4-dihydrothieno[2,3-d]pyrimidin-5-yl)picolinamide]	6.30 to 7.00
Cn1ccc(-c2ccccc2Cn2cnc3cccc(NC(=O)c4cc(Cl)c(O)c(Cl)c4)c3c2=O)n1 [Example 105, 3,5-dichloro-4-hydroxy-N-(3-(2-(1-methyl-1H-pyrazol-3-yl)benzyl)-4-oxo-3,4-dihydroquinazolin-5-yl)benzamide]	6.30 to 7.00
NS(=O)(=O)c1ccccc1Cn1cnc2cccc(NC(=O)c3cc(Cl)c(O)c(Cl)c3)c2c1=O [Example 106, 3,5-dichloro-4-hydroxy-N-(4-oxo-3-(2-sulfamoylbenzyl)-3,4-dihydroquinazolin-5-yl)benzamide]	< 5.00
Cn1nc(NC(=O)c2cc(Cl)c(O)c(Cl)n2)c2c(=O)n(Cc3ccccc3)cnc21 [Example 107, N-(5-benzyl-1-methyl-4-oxo-4,5-dihydro-1H-pyrazolo[3,4-d]pyrimidin-3-yl)-4,6-dichloro-5-hydroxypicolinamide]	6.00 to 6.30
O=C(Nc1cccc2ncn([C@@H]3C[C@H]3c3ccccc3)c(=O)c12)c1cc(Cl)c(O)c(Cl)n1 [Example 108, 4,6-dichloro-5-hydroxy-N-(4-oxo-3-((1R,2S)-2-phenylcyclopropyl)-3,4-dihydroquinazolin-5-yl)picolinamide TFA Salt]	6.00 to 6.30
O=C(Nc1cccc2ncn([C@H]3C[C@@H]3c3ccccc3)c(=O)c12)c1cc(Cl)c(O)c(Cl)n1 [Example 109, 4,6-dichloro-5-hydroxy-N-(4-oxo-3-((1S,2R)-2-phenylcyclopropyl)-3,4-dihydroquinazolin-5-yl)picolinamide]	5.00 to 6.00
O=C(Nc1cccc2ncn(Cc3ccccc3-c3ccccn3)c(=O)c12)c1cc(Cl)c(O)c(Cl)n1 [Example 110, 4,6-dichloro-5-hydroxy-N-(4-oxo-3-(2-(pyridin-2-yl)benzyl)-3,4-dihydroquinazolin-5-yl)picolinamide]	6.30 to 7.00
Cc1ccc(NC(=O)c2cc(Cl)c(O)c(Cl)c2)c2c(=O)n(Cc3ccccc3OC(F)(F)F)c(C(F)(F)F)nc12 [Example 112, 3,5-dichloro-4-hydroxy-N-(8-methyl-4-oxo-3-(2-(trifluoromethoxy)benzyl)-2-(trifluoromethyl)-3,4-dihydroquinazolin-5-yl)benzamide]	6.30 to 7.00
